Test system: 422866-222-R5-J1-PDC complex spheroid viability
Assay: Anticancer human tumor 422866-222-R5-J1-PDC patient-derived pancreatic adenocarcinoma cell line growth inhibition [POLQ]
Conditions: for IC50: curve of first compound; for viability, T/C: stronger effect = lower value
Summary of the method: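 Growth inhibition in 3D: complex spheroids (tumor PDC, HUVEC, MSC) treated with POLQ inhibitor combinations; where Cmax unknown, highest tested concentration 10 microM, except SN-38 at 1 microM.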

[1] = second compound 0.0316 µM, first compound 0.0316 µM
[2] = second compound 0.0316 µM, first compound 0.1 µM
[3] = second compound 0.0316 µM, first compound 0.316 µM
[4] = second compound 0.0316 µM, first compound 1 µM
[5] = second compound 0.0316 µM, first compound 3.16 µM
[6] = second compound 0.0316 µM, first compound 10 µM
[7] = second compound 0.1 µM, first compound 0.0316 µM
[8] = second compound 0.1 µM, first compound 0.1 µM
[9] = second compound 0.1 µM, first compound 0.316 µM
[10] = second compound 0.1 µM, first compound 1 µM
[11] = second compound 0.1 µM, first compound 3.16 µM
[12] = second compound 0.1 µM, first compound 10 µM
[13] = second compound 0.316 µM, first compound 0.0316 µM
[14] = second compound 0.316 µM, first compound 0.1 µM
[15] = second compound 0.316 µM, first compound 0.316 µM
[16] = second compound 0.316 µM, first compound 1 µM
[17] = second compound 0.316 µM, first compound 3.16 µM
[18] = second compound 0.316 µM, first compound 10 µM
[19] = second compound 1 µM, first compound 0.0316 µM
[20] = second compound 1 µM, first compound 0.1 µM
[21] = second compound 1 µM, first compound 0.316 µM
[22] = second compound 1 µM, first compound 1 µM
[23] = second compound 1 µM, first compound 3.16 µM
[24] = second compound 1 µM, first compound 10 µM
[25] = second compound 3.16 µM, first compound 0.0316 µM
[26] = second compound 3.16 µM, first compound 0.1 µM
[27] = second compound 3.16 µM, first compound 0.316 µM
[28] = second compound 3.16 µM, first compound 1 µM
[29] = second compound 3.16 µM, first compound 3.16 µM
[30] = second compound 3.16 µM, first compound 10 µM
[31] = second compound 10 µM, first compound 0.0316 µM
[32] = second compound 10 µM, first compound 0.1 µM
[33] = second compound 10 µM, first compound 0.316 µM
[34] = second compound 10 µM, first compound 1 µM
[35] = second compound 10 µM, first compound 3.16 µM
[36] = second compound 10 µM, first compound 10 µM
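Also: spheroids exposed to compounds for one week before readout.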
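For viability, T/C in this document: percent of DMSO vehicle wells luminescence so 100% = untreated viability.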

SMILES: COc1cc2cc(C(=O)CCC(=O)O)sc2cc1OC + Cc1cccc(N(C)C(=O)C2C(O)CCN2c2nc(C)cc(C(F)(F)F)c2C#N)c1
- IC50 (second compound 0.0316 µM): > 10000 nM
- IC50 (second compound 0.1 µM): > 10000 nM
- IC50 (second compound 0.316 µM): > 10000 nM
- IC50 (second compound 1 µM): > 10000 nM
- IC50 (second compound 3.16 µM): > 10000 nM
- IC50 (second compound 10 µM): > 10000 nM
- viability, T/C [1]: 95.6%
- viability, T/C [2]: 106%
- viability, T/C [3]: 98.6%
- viability, T/C [4]: 90.5%
- viability, T/C [5]: 85.4%
- viability, T/C [6]: 103%
- viability, T/C [7]: 101%
- viability, T/C [8]: 91.1%
- viability, T/C [9]: 82.6%
- viability, T/C [10]: 101%
- viability, T/C [11]: 75.5%
- viability, T/C [12]: 121%
- viability, T/C [13]: 116%
- viability, T/C [14]: 90.3%
- viability, T/C [15]: 91.8%
- viability, T/C [16]: 93.4%
- viability, T/C [17]: 93.7%
- viability, T/C [18]: 116%
- viability, T/C [19]: 94.9%
- viability, T/C [20]: 113%
- viability, T/C [21]: 98.2%
- viability, T/C [22]: 80.3%
- viability, T/C [23]: 87.9%
- viability, T/C [24]: 117%
- viability, T/C [25]: 107%
- viability, T/C [26]: 101%
- viability, T/C [27]: 109%
- viability, T/C [28]: 93.1%
- viability, T/C [29]: 85.7%
- viability, T/C [30]: 121%
- viability, T/C [31]: 88.6%
- viability, T/C [32]: 93%
- viability, T/C [33]: 103%
- viability, T/C [34]: 75.2%
- viability, T/C [35]: 79.6%
- viability, T/C [36]: 112%

SMILES: C=CCn1c(=O)c2cnc(Nc3ccc(N4CCN(C)CC4)cc3)nc2n1-c1cccc(C(C)(C)O)n1 + COC1C(OC(N)=O)C(O)C(Oc2ccc3c(O)c(NC(=O)c4ccc(O)c(CC=C(C)C)c4)c(=O)oc3c2C)OC1(C)C
- IC50 (second compound 0.0316 µM): 418 nM
- IC50 (second compound 0.1 µM): 304 nM
- IC50 (second compound 0.316 µM): 493 nM
- IC50 (second compound 1 µM): 471 nM
- IC50 (second compound 3.16 µM): 538 nM
- IC50 (second compound 10 µM): 356 nM
- viability, T/C (second compound 0.0316 µM, first compound 0.00316 µM): 91.1%
- viability, T/C (second compound 0.0316 µM, first compound 0.01 µM): 106%
- viability, T/C [1]: 96.3%
- viability, T/C [2]: 93.2%
- viability, T/C [3]: 54.3%
- viability, T/C [4]: 36.6%
- viability, T/C (second compound 0.1 µM, first compound 0.00316 µM): 98.8%
- viability, T/C (second compound 0.1 µM, first compound 0.01 µM): 105%
- viability, T/C [7]: 86.2%
- viability, T/C [8]: 79.4%
- viability, T/C [9]: 46.5%
- viability, T/C [10]: 34.5%
- viability, T/C (second compound 0.316 µM, first compound 0.00316 µM): 97.4%
- viability, T/C (second compound 0.316 µM, first compound 0.01 µM): 101%
- viability, T/C [13]: 103%
- viability, T/C [14]: 84.4%
- viability, T/C [15]: 59.1%
- viability, T/C [16]: 36.6%
- viability, T/C (second compound 1 µM, first compound 0.00316 µM): 94.8%
- viability, T/C (second compound 1 µM, first compound 0.01 µM): 105%
- viability, T/C [19]: 93.8%
- viability, T/C [20]: 89.5%
- viability, T/C [21]: 58%
- viability, T/C [22]: 34.6%
- viability, T/C (second compound 3.16 µM, first compound 0.00316 µM): 96.7%
- viability, T/C (second compound 3.16 µM, first compound 0.01 µM): 100%
- viability, T/C [25]: 91.5%
- viability, T/C [26]: 79%
- viability, T/C [27]: 59.1%
- viability, T/C [28]: 39.7%
- viability, T/C (second compound 10 µM, first compound 0.00316 µM): 95.7%
- viability, T/C (second compound 10 µM, first compound 0.01 µM): 84.3%
- viability, T/C [31]: 98.2%
- viability, T/C [32]: 79.9%
- viability, T/C [33]: 51.9%
- viability, T/C [34]: 38.9%

SMILES: CC1COCCN1c1cc(C2(S(C)(=N)=O)CC2)nc(-c2ccnc3[nH]ccc23)n1 (stereo not drawn) + Nc1ccc(C#CCN(C(=O)Cc2ncc(C(F)(F)F)cc2C(F)(F)F)c2ccc(F)cc2)nn1
- IC50 (second compound 0.0316 µM): 2460 nM
- IC50 (second compound 0.1 µM): 1830 nM
- IC50 (second compound 0.316 µM): 1750 nM
- IC50 (second compound 1 µM): 2120 nM
- IC50 (second compound 3.16 µM): 1740 nM
- IC50 (second compound 10 µM): 1900 nM
- viability, T/C [1]: 105%
- viability, T/C [2]: 81.7%
- viability, T/C [3]: 80.9%
- viability, T/C [4]: 64.5%
- viability, T/C [5]: 38%
- viability, T/C [6]: 42.6%
- viability, T/C [7]: 92%
- viability, T/C [8]: 96.5%
- viability, T/C [9]: 95.3%
- viability, T/C [10]: 58.9%
- viability, T/C [11]: 41.4%
- viability, T/C [12]: 42.2%
- viability, T/C [13]: 89.8%
- viability, T/C [14]: 96%
- viability, T/C [15]: 89.7%
- viability, T/C [16]: 65.6%
- viability, T/C [17]: 32.5%
- viability, T/C [18]: 34%
- viability, T/C [19]: 107%
- viability, T/C [20]: 112%
- viability, T/C [21]: 92.4%
- viability, T/C [22]: 70.5%
- viability, T/C [23]: 38.7%
- viability, T/C [24]: 28.2%
- viability, T/C [25]: 87.3%
- viability, T/C [26]: 108%
- viability, T/C [27]: 98.8%
- viability, T/C [28]: 57.2%
- viability, T/C [29]: 40.8%
- viability, T/C [30]: 43.5%
- viability, T/C [31]: 109%
- viability, T/C [32]: 117%
- viability, T/C [33]: 102%
- viability, T/C [34]: 65.9%
- viability, T/C [35]: 37.8%
- viability, T/C [36]: 31.8%

SMILES: C#Cc1c(F)ccc2cc(O)cc(-c3ncc4c(N5CC6CCC(C5)N6)nc(OCC56CCCN5CC(F)C6)nc4c3F)c12 (stereo not drawn) + Nc1ccc(C#CCN(C(=O)Cc2ncc(C(F)(F)F)cc2C(F)(F)F)c2ccc(F)cc2)nn1
- IC50 (second compound 0.0316 µM): 733 nM
- IC50 (second compound 0.1 µM): 727 nM
- IC50 (second compound 0.316 µM): 813 nM
- IC50 (second compound 1 µM): 750 nM
- IC50 (second compound 3.16 µM): 646 nM
- IC50 (second compound 10 µM): 619 nM
- viability, T/C [1]: 95.4%
- viability, T/C [2]: 103%
- viability, T/C [3]: 62.8%
- viability, T/C [4]: 48.7%
- viability, T/C [5]: 26.8%
- viability, T/C [6]: 26%
- viability, T/C [7]: 101%
- viability, T/C [8]: 71.5%
- viability, T/C [9]: 67.6%
- viability, T/C [10]: 43.4%
- viability, T/C [11]: 32.1%
- viability, T/C [12]: 21.7%
- viability, T/C [13]: 88.2%
- viability, T/C [14]: 78.4%
- viability, T/C [15]: 66.2%
- viability, T/C [16]: 44.3%
- viability, T/C [17]: 37.1%
- viability, T/C [18]: 27.9%
- viability, T/C [19]: 102%
- viability, T/C [20]: 89.4%
- viability, T/C [21]: 67.4%
- viability, T/C [22]: 44.3%
- viability, T/C [23]: 30.6%
- viability, T/C [24]: 26%
- viability, T/C [25]: 93.1%
- viability, T/C [26]: 93%
- viability, T/C [27]: 57%
- viability, T/C [28]: 48.2%
- viability, T/C [29]: 26.6%
- viability, T/C [30]: 27.9%
- viability, T/C [31]: 89.6%
- viability, T/C [32]: 92.2%
- viability, T/C [33]: 62.3%
- viability, T/C [34]: 41.7%
- viability, T/C [35]: 35.3%
- viability, T/C [36]: 27.7%
